Reference: ChEMBL document CHEMBL1134688, “Synthesis, biological evaluation, and pharmacophore generation of new pyridazinone derivatives with affinity toward alpha(1)- and alpha(2)-adrenoceptors” (J Med Chem, 2001)

Experiments:
[1] = target: T1, Adrenergic receptor alpha-1 (Rattus norvegicus, UniProt P15823+P23944+P43140); assay: Alpha-1 adrenergic receptor binding affinity of the compound, value taken from literature; assay type: protein assay
T1 sequence (P15823 whole entry): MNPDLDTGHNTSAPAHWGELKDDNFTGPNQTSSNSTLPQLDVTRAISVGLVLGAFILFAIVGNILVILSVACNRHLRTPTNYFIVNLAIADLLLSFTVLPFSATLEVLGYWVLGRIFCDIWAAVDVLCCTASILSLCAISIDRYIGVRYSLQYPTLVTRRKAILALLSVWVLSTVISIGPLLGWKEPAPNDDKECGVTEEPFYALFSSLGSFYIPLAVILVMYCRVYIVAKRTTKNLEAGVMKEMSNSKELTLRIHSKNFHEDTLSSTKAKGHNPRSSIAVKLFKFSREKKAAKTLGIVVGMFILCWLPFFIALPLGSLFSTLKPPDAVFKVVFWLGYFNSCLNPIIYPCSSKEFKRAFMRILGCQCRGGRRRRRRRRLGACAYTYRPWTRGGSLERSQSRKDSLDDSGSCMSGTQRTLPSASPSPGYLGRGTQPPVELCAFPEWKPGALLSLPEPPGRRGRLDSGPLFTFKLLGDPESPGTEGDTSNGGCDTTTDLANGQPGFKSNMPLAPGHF
T1 sequence (P23944 whole entry): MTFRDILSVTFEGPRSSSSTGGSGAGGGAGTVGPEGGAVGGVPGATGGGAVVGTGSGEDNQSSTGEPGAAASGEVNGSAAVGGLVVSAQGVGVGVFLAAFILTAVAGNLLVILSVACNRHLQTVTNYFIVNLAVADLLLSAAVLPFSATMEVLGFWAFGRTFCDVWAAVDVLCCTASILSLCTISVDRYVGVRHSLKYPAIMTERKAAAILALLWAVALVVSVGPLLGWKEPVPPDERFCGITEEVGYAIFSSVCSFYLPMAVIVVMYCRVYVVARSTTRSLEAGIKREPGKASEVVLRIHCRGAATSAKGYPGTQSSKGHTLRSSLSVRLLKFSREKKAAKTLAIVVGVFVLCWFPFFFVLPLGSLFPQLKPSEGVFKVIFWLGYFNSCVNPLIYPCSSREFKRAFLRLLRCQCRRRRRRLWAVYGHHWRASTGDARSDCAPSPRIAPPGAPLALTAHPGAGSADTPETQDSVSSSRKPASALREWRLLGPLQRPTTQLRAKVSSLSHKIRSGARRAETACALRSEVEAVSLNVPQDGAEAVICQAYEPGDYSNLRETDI
T1 sequence (P43140 whole entry): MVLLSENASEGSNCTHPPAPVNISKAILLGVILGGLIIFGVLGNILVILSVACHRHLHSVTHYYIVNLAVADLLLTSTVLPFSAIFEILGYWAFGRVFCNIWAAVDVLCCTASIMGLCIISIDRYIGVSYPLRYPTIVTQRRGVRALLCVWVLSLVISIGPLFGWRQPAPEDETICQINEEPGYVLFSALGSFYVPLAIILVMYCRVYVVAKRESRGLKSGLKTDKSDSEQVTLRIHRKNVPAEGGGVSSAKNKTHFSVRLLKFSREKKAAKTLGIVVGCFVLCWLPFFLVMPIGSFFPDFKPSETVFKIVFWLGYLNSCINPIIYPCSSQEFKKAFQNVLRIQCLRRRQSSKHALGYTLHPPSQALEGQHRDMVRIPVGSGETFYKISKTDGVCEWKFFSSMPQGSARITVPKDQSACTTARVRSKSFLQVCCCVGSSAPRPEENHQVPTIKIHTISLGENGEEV

[2] = target: T2, Adrenergic receptor alpha-2 (Rattus norvegicus, UniProt P22086+P19328+P22909); assay: Binding affinity towards alpha-2 adrenergic receptor in rat cortex membrane using [3H]rauwolscine radioligand; assay type: cell membranes
T2 sequence (P22086 whole entry): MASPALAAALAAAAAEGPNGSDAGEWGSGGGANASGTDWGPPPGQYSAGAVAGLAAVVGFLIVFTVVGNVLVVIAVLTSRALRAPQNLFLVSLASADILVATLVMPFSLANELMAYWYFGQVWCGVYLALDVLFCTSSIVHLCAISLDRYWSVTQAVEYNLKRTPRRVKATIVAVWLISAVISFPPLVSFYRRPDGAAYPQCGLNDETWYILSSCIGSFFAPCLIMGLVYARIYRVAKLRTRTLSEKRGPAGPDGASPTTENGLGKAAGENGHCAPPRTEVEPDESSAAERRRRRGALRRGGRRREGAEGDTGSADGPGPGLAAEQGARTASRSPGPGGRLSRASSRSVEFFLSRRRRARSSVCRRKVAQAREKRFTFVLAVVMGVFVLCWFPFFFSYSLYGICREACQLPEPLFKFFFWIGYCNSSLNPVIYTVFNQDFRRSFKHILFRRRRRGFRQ
T2 sequence (P19328 whole entry): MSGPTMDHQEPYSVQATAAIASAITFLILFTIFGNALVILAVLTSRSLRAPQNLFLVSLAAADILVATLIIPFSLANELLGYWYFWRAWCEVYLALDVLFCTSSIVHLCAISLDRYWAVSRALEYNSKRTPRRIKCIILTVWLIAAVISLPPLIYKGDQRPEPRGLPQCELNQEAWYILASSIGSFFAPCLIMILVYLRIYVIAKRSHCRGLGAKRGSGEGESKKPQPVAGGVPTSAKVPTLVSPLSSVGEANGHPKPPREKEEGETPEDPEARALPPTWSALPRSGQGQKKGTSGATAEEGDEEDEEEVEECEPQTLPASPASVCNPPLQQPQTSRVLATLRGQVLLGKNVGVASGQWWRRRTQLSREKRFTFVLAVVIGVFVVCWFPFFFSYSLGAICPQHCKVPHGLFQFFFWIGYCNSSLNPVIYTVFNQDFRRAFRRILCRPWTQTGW
T2 sequence (P22909 whole entry): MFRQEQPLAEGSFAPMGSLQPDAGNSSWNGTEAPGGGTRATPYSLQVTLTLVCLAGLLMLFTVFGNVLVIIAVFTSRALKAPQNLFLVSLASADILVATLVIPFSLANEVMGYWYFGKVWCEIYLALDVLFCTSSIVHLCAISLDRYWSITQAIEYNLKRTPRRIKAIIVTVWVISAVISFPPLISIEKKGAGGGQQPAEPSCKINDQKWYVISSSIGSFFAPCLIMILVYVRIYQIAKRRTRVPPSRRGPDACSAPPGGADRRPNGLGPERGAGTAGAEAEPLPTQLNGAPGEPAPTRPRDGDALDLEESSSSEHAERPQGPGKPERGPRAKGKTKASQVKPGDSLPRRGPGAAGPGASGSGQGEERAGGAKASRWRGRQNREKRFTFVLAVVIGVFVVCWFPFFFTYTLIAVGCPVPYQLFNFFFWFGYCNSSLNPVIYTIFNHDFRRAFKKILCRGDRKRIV

[3] = target: Adrenergic receptor alpha-2 (Rattus norvegicus) (UniProt P22086+P19328+P22909); assay: Ratio of binding affinity towards Alpha-2 and alpha-1 adrenergic receptor; assay type: protein assay
[4] = target: T1, Adrenergic receptor alpha-1; assay: Binding affinity towards alpha-1 adrenergic receptor in rat cortex membrane using [3H]-prazosin radioligand; assay type: cell membranes
[5] = target: T1, Adrenergic receptor alpha-1; assay: Alpha-1-adrenergic receptor binding affinity of the compound, value taken from literature; assay type: protein assay

Compound	Ki [1]	Ki [2]	Ratio [3]	Ki [4]	Ki [5]
COc1ccccc1N1CCN(CCNC(=O)C23CC4CC(CC(C4)C2)C3)CC1	17.5 nM				
CCC(=O)NCCN1CCN(c2ccccc2OC)CC1	258 nM				
O=C(c1ccco1)N1CCN(c2ccc(=O)n(CCCN3CCN(c4ccccc4Cl)CC3)n2)CC1		260 nM	20.3	12.8 nM	
O=C(c1ccco1)N1CCN(c2ccc(=O)n(CCCCCCCN3CCN(c4ccccc4Cl)CC3)n2)CC1		23.5 nM	4.2	5.6 nM	
COc1ccccc1OCCN1CCN(c2cnn(CCCCN3CCN(c4ccccc4Cl)CC3)c(=O)c2Cl)CC1		39.3 nM	4	10 nM	
COc1ccccc1N1CCN(CCCCN2C(=O)CCc3ccccc32)CC1	0.34 nM				
COc1ccccc1OCCN1CCN(c2cnn(CCCN3CCN(c4ccccc4Cl)CC3)c(=O)c2Cl)CC1		219 nM	7.8	27.8 nM	
COc1ccccc1N1CCN(CCCn2nc(N3CCN(C(=O)c4ccco4)CC3)ccc2=O)CC1		631 nM	9.8	64.5 nM	
COc1ccccc1OCCN1CCN(c2cnn(CCCCCCCN3CCN(c4ccccc4Cl)CC3)c(=O)c2Cl)CC1		7.4 nM	2.7	2.7 nM	
COc1ccccc1OCCN1CCN(c2cnn(CCCCCCCCN3CCN(c4ccccc4Cl)CC3)c(=O)c2Cl)CC1		22.8 nM	4	5.6 nM	
COc1ccccc1OCCN1CCN(c2cnn(CCN3CCN(c4ccccc4Cl)CC3)c(=O)c2Cl)CC1		292.3 nM	5	58.8 nM	
COc1ccccc1OCCN1CCN(c2ccc(=O)n(CCCN3CCN(c4ccccc4OC)CC3)n2)CC1		254 nM	34.8	7.3 nM	
COc1ccccc1OCCN1CCN(c2ccc(=O)n(CCCN3CCN(c4ccccc4Cl)CC3)n2)CC1		316 nM	46.5	6.8 nM	
COc1ccccc1N1CCN(CCCCn2nc(N3CCN(C(=O)c4ccco4)CC3)ccc2=O)CC1		790 nM	4.4	180 nM	
O=C(c1ccco1)N1CCN(c2cnn(CCCCCCCN3CCN(c4ccccc4Cl)CC3)c(=O)c2Cl)CC1		36.2 nM	3.1	11.5 nM	
O=C1CCc2ccccc2N1CCCCN1CCN(c2ncccn2)CC1	374 nM				
O=C(c1ccco1)N1CCN(c2cnn(CCCCCCN3CCN(c4ccccc4Cl)CC3)c(=O)c2Cl)CC1		66 nM	11.6	5.7 nM	
COc1ccccc1OCCN1CCN(c2cnn(CCCCCCN3CCN(c4ccccc4OC)CC3)c(=O)c2Cl)CC1		3.5 nM	2.3	1.5 nM	
COc1ccccc1N1CCN(CCCCCn2nc(N3CCN(C(=O)c4ccco4)CC3)ccc2=O)CC1		255 nM	5.8	43.7 nM	
COc1ccccc1N1CCN(CCCCCCn2ncc(N3CCN(C(=O)c4ccco4)CC3)c(Cl)c2=O)CC1		24.5 nM	6	4.1 nM	
COc1ccccc1N1CCN(CCCCN2C(=O)CCC2=O)CC1	11.9 nM				
COc1ccccc1N1CCN(CCCCCn2ncc(N3CCN(C(=O)c4ccco4)CC3)c(Cl)c2=O)CC1		23.3 nM	12.3	1.9 nM	
O=C(c1ccco1)N1CCN(c2ccc(=O)n(CCCCCN3CCN(c4ccccc4Cl)CC3)n2)CC1		105 nM	7.9	13.3 nM	
COc1ccccc1N1CCN(CCCCCCCn2nc(N3CCN(C(=O)c4ccco4)CC3)ccc2=O)CC1		96 nM	1.7	54.7 nM	
COc1ccccc1OCCN1CCN(c2cnn(CCN3CCN(c4ccccc4OC)CC3)c(=O)c2Cl)CC1		409 nM	25.5	16 nM	
COc1ccccc1OCCN1CCN(c2cnn(CCCCCCN3CCN(c4ccccc4Cl)CC3)c(=O)c2Cl)CC1		25.2 nM	6	4.2 nM	
COc1ccccc1N1CCN(CCn2c(=O)[nH]c3c([nH]c4ccccc43)c2=O)CC1					0.21 nM
COc1ccccc1OCCN1CCN(c2cnn(CCCCCN3CCN(c4ccccc4Cl)CC3)c(=O)c2Cl)CC1		29 nM	6.4	4.5 nM	
COc1ccccc1OCCN1CCN(c2cnn(CCCN3CCN(c4ccccc4OC)CC3)c(=O)c2Cl)CC1		245 nM	17	14.5 nM	
